Measured values published in ChEMBL document CHEMBL3272121, “Hypolipidemic analogues of ethyl 4-benzyloxybenzoate” (J Med Chem, 1977).
Where a name gives a salt, the structure may show the parent alone.

Key:
Rattus norvegicus [1] = assay: Toxicity in CFY Sprague-Dawley rat assessed as relative liver weight at 0.25% dietary level administered for 7 days relative to control; assay type: organism-based; conditions: in vivo, po, 168 h
Liver [2] = assay: Inhibition of fatty acid biosynthesis from [1-14C]acetate in rat liver slices at 5 X 10^-4 M relative to control; assay type: functional
Rattus norvegicus [3] = assay: Toxicity in CFY Sprague-Dawley rat assessed as body weight gain at 0.25% dietary level administered for 7 days relative to control; assay type: organism-based; conditions: in vivo, po, 168 h
Liver [4] = assay: Inhibition of cholesterol biosynthesis from [1-14C]acetate in rat liver slices at […] relative to control; assay type: functional
Rattus norvegicus [5] = assay: Hypolipidemic activity in CFY Sprague-Dawley rat assessed as serum cholesterol level at 0.25% dietary level administered for 7 days relative to control; assay type: functional
Rattus norvegicus [6] = assay: Hypolipidemic activity in CFY Sprague-Dawley rat assessed as serum triglyceride level at 0.25% dietary level administered for 7 days relative to control; assay type: functional
Rattus norvegicus [7] = assay: Hypolipidemic activity in CFY Sprague-Dawley rat assessed as liver lipid per gm of liver at 0.25% dietary level administered for 7 days relative to control; assay type: functional

## CCOC(=O)c1ccc(OCc2cccc([N+](=O)[O-])c2)cc1
Rattus norvegicus [1]
  Activity: -4%
Liver [2]
  inhibition at 500 µM: 47%
Rattus norvegicus [3]
  Activity: -29%
Liver [4]
  inhibition at 500 µM: 54%
Rattus norvegicus [5]
  Activity: -7%
Rattus norvegicus [6]
  Activity: -28%

## CCOC(=O)c1ccc(OCc2cc(C)ccc2C)cc1
Rattus norvegicus [1]
  Activity: -9%
Liver [2]
  inhibition at 500 µM: 55%
Rattus norvegicus [3]
  Activity: -21%
Liver [4]
  inhibition at 500 µM: 93%
Rattus norvegicus [5]
  Activity: -12%
Rattus norvegicus [6]
  Activity: -49%

## Cc1ccc(OCc2ccccc2)cc1
Rattus norvegicus [1]
  Activity: 29%
Liver [2]
  inhibition at 500 µM: 43%
Rattus norvegicus [3]
  Activity: -7%
Liver [4]
  inhibition at 500 µM: 67%
Rattus norvegicus [5]
  Activity: -19%
Rattus norvegicus [6]
  Activity: -19%

## COC(=O)CCc1ccc(OCc2ccccc2)cc1
Rattus norvegicus [7]
  Activity: 3%
Rattus norvegicus [1]
  Activity: 18%
Rattus norvegicus [3]
  Activity: -3%
Rattus norvegicus [5]
  Activity: -16%
Rattus norvegicus [6]
  Activity: -45%

## CCOC(=O)Cc1cccc(OCc2ccccc2OC)c1
Rattus norvegicus [7]
  Activity: 9%
Rattus norvegicus [1]
  Activity: 34%
Rattus norvegicus [3]
  Activity: 17%
Rattus norvegicus [5]
  Activity: -16%
Rattus norvegicus [6]
  Activity: -13%

## CCOC(=O)c1ccc(OCc2cccc(F)c2)cc1
Rattus norvegicus [7]
  Activity: 1%
Rattus norvegicus [1]
  Activity: -4%
Rattus norvegicus [3]
  Activity: -1%
Rattus norvegicus [5]
  Activity: -19%
Rattus norvegicus [6]
  Activity: -60%

## CCc1ccc(OCc2ccccc2)cc1
Rattus norvegicus [7]
  Activity: -6%
Rattus norvegicus [1]
  Activity: 20%
Rattus norvegicus [3]
  Activity: -3%
Rattus norvegicus [5]
  Activity: -17%
Rattus norvegicus [6]
  Activity: -57%

## CCCC(C(=O)OCCN(CC)CC)(c1ccccc1)c1ccccc1 [PROADIFEN HYDROCHLORIDE]
Liver [2]
  inhibition at 500 µM: 62%
Liver [4]
  inhibition at 500 µM: 86%

## CC(C)OC(=O)c1ccc(OCc2ccccc2)cc1
Rattus norvegicus [7]
  Activity: -5%
Rattus norvegicus [1]
  Activity: 13%
Rattus norvegicus [3]
  Activity: -4%
Rattus norvegicus [5]
  Activity: -10%
Rattus norvegicus [6]
  Activity: -40%

## O=C([O-])c1ccc(OCc2ccccc2)cc1.[Na+]
Rattus norvegicus [7]
  Activity: 12%
Rattus norvegicus [1]
  Activity: 2%
Rattus norvegicus [3]
  Activity: -13%
Rattus norvegicus [5]
  Activity: -15%
Rattus norvegicus [6]
  Activity: -38%

## CCOC(=O)c1ccc(OCc2ccc(Cl)cc2Cl)cc1
Rattus norvegicus [7]
  Activity: 8%
Rattus norvegicus [1]
  Activity: -2%
Rattus norvegicus [3]
  Activity: -15%
Rattus norvegicus [5]
  Activity: -18%
Rattus norvegicus [6]
  Activity: -42%

## Cc1ccc(COc2ccc(C#N)cc2)cc1
Rattus norvegicus [7]
  Activity: 14%
Rattus norvegicus [1]
  Activity: 27%
Rattus norvegicus [3]
  Activity: -29%
Rattus norvegicus [5]
  Activity: -19%
Rattus norvegicus [6]
  Activity: -58%

## CCOC(=O)Cc1ccc(OCc2ccc(F)cc2)cc1
Rattus norvegicus [7]
  Activity: 11%
Rattus norvegicus [1]
  Activity: 19%
Rattus norvegicus [3]
  Activity: 3%
Rattus norvegicus [5]
  Activity: -29%
Rattus norvegicus [6]
  Activity: -71%

## CCOC(=O)Cc1ccc(OCc2cccc(F)c2)cc1
Rattus norvegicus [7]
  Activity: 9%
Rattus norvegicus [1]
  Activity: 18%
Rattus norvegicus [3]
  Activity: -17%
Rattus norvegicus [5]
  Activity: -37%
Rattus norvegicus [6]
  Activity: -71%

## O=C(O)c1ccc(OCc2ccc(F)cc2)cc1
Rattus norvegicus [7]
  Activity: 8%
Rattus norvegicus [1]
  Activity: 2%
Rattus norvegicus [3]
  Activity: -3%
Rattus norvegicus [5]
  Activity: -28%
Rattus norvegicus [6]
  Activity: -49%

## CCOC(=O)CCCCCc1ccc(OCc2ccccc2)cc1
Rattus norvegicus [7]
  Activity: 32%
Rattus norvegicus [1]
  Activity: 21%
Rattus norvegicus [3]
  Activity: -7%
Rattus norvegicus [5]
  Activity: -38%
Rattus norvegicus [6]
  Activity: -83%

## N#Cc1ccc(OCc2ccc(Cl)c(Cl)c2)cc1
Rattus norvegicus [7]
  Activity: 8%
Rattus norvegicus [1]
  Activity: 18%
Rattus norvegicus [3]
  Activity: -9%
Rattus norvegicus [5]
  Activity: -19%
Rattus norvegicus [6]
  Activity: -6%

## CCOC(=O)c1ccc(COc2ccc(C)cc2)cc1
Rattus norvegicus [7]
  Activity: 13%
Rattus norvegicus [1]
  Activity: 4%
Rattus norvegicus [3]
  Activity: 5%
Rattus norvegicus [5]
  Activity: -20%
Rattus norvegicus [6]
  Activity: -41%

## CCOC(=O)C(C)(C)Oc1ccc(Cl)cc1 [CLOFIBRATE]
Rattus norvegicus [7]
  Activity: 3%
Rattus norvegicus [1]
  Activity: 32%
Rattus norvegicus [3]
  Activity: 0%
Rattus norvegicus [5]
  Activity: -23%
Rattus norvegicus [6]
  Activity: -31%

## CCOCCOC(=O)c1ccc(OCc2ccccc2)cc1
Rattus norvegicus [7]
  Activity: 0%
Rattus norvegicus [1]
  Activity: 10%
Rattus norvegicus [3]
  Activity: 10%
Rattus norvegicus [5]
  Activity: -17%
Rattus norvegicus [6]
  Activity: -51%
